Results taken from paper PMC5571211 (Scientific Reports, 2017).

Columns and labels:
15-LOX = 15-LOX activity (15-HETE) in intact neutrophils; type: cell-based, human; conditions: A23187 and 20 µM AA, concentration-dependently elevated
Experimental: In order to examine 5-LOX product formation in intact human neutrophils and monocytes, freshly isolated cells were resuspended in PBS buffer containing 0.1% glucose and 1 mM CaCl2 (PGC buffer) to a final cell density of 5 × 10^6 or 2 × 10^6, respectively. […] 5-LOX product formation was stopped by addition of one volume of ice-cold methanol, samples were subjected to solid phase extraction after addition of 200 ng PGB1 as internal standard and 5-LOX products were analyzed by RP-HPLC as described above.

[1] = tested on: HEK293 cells expressing 5-LOX and FLAP; test: 5-LOX product formation in HEK293 cells expressing 5-LOX and FLAP; type: cell-based; conditions: HEK293 expressing 5-LOX and FLAP, A23187 plus 3 µM AA
Experimental: HEK293 cells were cultured in monolayers (37 °C, 5% CO2) in DMEM containing FCS (10%), penicillin (100 U/mL) and streptomycin (100 µg/mL). HEK293 cell lines stably expressing 5-LOX with or without FLAP were selected using geneticin (400 µg/mL) with or without hygromycin (200 µg/mL), respectively, as previously described. Transfection of HEK293 was performed using pcDNA3.1 plasmids and lipofectamine according to the manufacturer’s instructions (Invitrogen, Darmstadt, Germany).
For analysis of 5-LOX product formation in HEK293 cells stably expressing 5-LOX with or without FLAP, cells were harvested by trypsinization, pelleted (1,200 rpm, 5 min, 4 °C) and resuspended in PGC buffer to a final concentration of 1 × 10^6 cells/mL. Aliquots were pre-incubated with test compounds or 0.1% DMSO for 15 min, respectively, and stimulated with 2.5 µM A23187 and 3 µM AA.

sEH in HepG2 cells = biological target: T1, sEH in HepG2 cells (Homo sapiens, UniProt P34913); test: 14,15-DiHETrE formation in HepG2 cells (cell-based sEH assay); conditions: HepG2 cells; AUDA 5 µM, MK886 0.3 µM, SC57461A 0.3 µM
T1 construct: sEH is constitutively expressed in the human liver cancer cell line HepG2; endogenous in cells; host or cells: HepG2
T1 sequence (P34913 1-555): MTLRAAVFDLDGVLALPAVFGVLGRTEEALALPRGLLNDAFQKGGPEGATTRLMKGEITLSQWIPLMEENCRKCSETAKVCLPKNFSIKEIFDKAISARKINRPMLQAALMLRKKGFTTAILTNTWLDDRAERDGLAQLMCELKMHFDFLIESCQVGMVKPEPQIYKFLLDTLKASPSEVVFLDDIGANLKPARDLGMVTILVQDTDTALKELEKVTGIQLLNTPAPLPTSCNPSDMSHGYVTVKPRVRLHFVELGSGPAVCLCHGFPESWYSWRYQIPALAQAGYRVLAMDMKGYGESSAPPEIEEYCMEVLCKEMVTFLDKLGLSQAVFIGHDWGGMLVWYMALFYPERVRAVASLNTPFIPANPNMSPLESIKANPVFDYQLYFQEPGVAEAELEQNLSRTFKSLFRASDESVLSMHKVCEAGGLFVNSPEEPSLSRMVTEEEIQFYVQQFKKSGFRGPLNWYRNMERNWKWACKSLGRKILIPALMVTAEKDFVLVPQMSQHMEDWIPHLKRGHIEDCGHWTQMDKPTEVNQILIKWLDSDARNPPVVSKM
Experimental: To assay the activity of sEH in a cell-based model, HepG2 cells were harvested by trypsinization, pelleted (1,200 rpm, 5 min, 4 °C) and resuspended in PGC buffer to a final concentration of 1.5 × 10^6 cells/mL. […] Briefly, samples were acidified with four volumes of MilliQ water pH 3.5 containing PBS-HCl and subjected to Waters Sep-Pak® Vac 6cc columns (Waters, Milford, MA, USA), washed once with MilliQ and hexane, and eluted with methylformiate. The nitrogen-dried samples were dissolved in 50% methanol, and 14,15-DiHETrE formation was measured by UPLC-MS/MS using an Acquity™ UPLC system (Waters, Milford, MA, USA) and a QTRAP 5500 Mass Spectrometer (ABSciex, Darmstadt, Germany) equipped with a Turbo V™ Source and electrospray ionization (ESI). […] Ion spray voltage was set to 4000 V, the heater temperature to 500 °C, the declustering potential to 50–80 eV, the entrance potential to 10 eV, the collision cell exit potential to 10–13 eV, collision energies of 10 eV, the spray gas pressure to 40 psi, medium collision gas and the curtain gas pressure to 35 psi.

effect on sEH in the cell-based sEH assay (sEH in HepG2 cells)	SMILES	15-HETE formation (15-LOX)	inhibition of 5-LOX product formation [1]
	Cc1cc(OCc2nc3ccccc3s2)ccc1NC(=O)Nc1ccc(Cl)c(Cl)c1 [diflapolin, N-[4-(benzothiazol-2-ylmethoxy)-2-methylphenyl]-N′-(3,4-dichlorophenyl)urea]	up to 200 % of the vehicle control	strongly inhibited
no impact	CC(C)c1ccc2c(c1)c(SC(C)(C)C)c(CC(C)(C)C(=O)O)n2Cc1ccc(Cl)cc1 [MK886, 3-[1-(4-chlorobenzyl)-3-t-butyl-thio-5-isopropylindol-2-yl]-2,2 - dimethylpropanoic acid]		
